How the values were obtained:
[1] = tested on: Human Heme Oxygenase-1 (HMOX-1); assay: ELISA assay to measure human heme oxygenase-1 (HMOX-1) in HepG2 lysate; format: cell-based; conditions: fold change of human HMOX1 protein levels relative to DMSO control, HepG2
Outline: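 HepG2 cells lysed in PBS/0.5% Triton X-100/1 mM EDTA with protease inhibitors; lysate diluted 1:20. Sandwich ELISA: anti-HO-1 capture (8 μg/ml), biotinylated detection antibody (200 ng/ml), streptavidin-HRP, chemiluminescent read. Quantified against 12-point HO-1 standard curve from 20 ng/ml; incubations at 20 °C.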

[2] = PK study, plasma and brain levels in C57BL/6 mice; format: in vivo, mouse; conditions: male C57BL/6 mice, 50 mg/kg oral
Description: 9-10 week old male C57BL/6 mice were dosed orally with 50 mg/kg of the test compound formulated in 5% w/v tween 80 and 0.5% methyl cellulose. At 0.5 and 4 h post dosing, whole blood was collected, animals were sacrificed and brain tissues were collected. The blood samples were immediately placed on ice, and centrifuged within 60 min at 4° C. for 3 min at 14000 rpm to obtain plasma. Plasma was transferred by pipette to pre-labeled Eppendorf tubes, stored at −80° C. until analyzed.
Brain tissue samples were collected and rinsed with fresh ice cold 0.9% NaCl solution, dried quickly and thereafter frozen on dry ice/liquid nitrogen and stored at −70±10° C. until analyzed. Homogenization was done using phosphate buffer saline and used for analysis. Bioanalysis was performed using LC-MS/MS (API 4000).

- Maximum Fold induction [1]: 21-38
- brain penetration [2]: good brain penetration
Structure (SMILES): COCCNC(=O)c1ccc2c(c1)nc(Nc1nc3ccc(OCCOC)cc3o1)n2C [Example 56, 2-((6-(2-methoxyethoxy)benzo[d]oxazol-2-yl)amino)-N-(2-methoxyethyl)-1-methyl-1H-benzo[d]imidazole-5-carboxamide]

From patent publication US20240051952A1, “HMOX1 INDUCERS” (Mitobridge Inc., priority 2019, published 2024)
